# Test results from US12312359B2 (Vitae Pharmaceuticals, LLC, priority 2016, dated 2025).
# What was measured:
# [1] = target: T1, biotinylated wild-type menin and MLL-AF9 fusion protein (menin/MLL binding) (Homo sapiens, UniProt O00255); test: Assay 1: menin/MLL binding AlphaLISA assay, wild-type menin; details: Table 30; column head does not say wild-type or mutated menin
# T1 construct: made in house; host or cells: menin: E. coli; MLL-AF9-FLAG: HEK293 cells, used as cleared lysate
# T1 sequence (O00255 1-610): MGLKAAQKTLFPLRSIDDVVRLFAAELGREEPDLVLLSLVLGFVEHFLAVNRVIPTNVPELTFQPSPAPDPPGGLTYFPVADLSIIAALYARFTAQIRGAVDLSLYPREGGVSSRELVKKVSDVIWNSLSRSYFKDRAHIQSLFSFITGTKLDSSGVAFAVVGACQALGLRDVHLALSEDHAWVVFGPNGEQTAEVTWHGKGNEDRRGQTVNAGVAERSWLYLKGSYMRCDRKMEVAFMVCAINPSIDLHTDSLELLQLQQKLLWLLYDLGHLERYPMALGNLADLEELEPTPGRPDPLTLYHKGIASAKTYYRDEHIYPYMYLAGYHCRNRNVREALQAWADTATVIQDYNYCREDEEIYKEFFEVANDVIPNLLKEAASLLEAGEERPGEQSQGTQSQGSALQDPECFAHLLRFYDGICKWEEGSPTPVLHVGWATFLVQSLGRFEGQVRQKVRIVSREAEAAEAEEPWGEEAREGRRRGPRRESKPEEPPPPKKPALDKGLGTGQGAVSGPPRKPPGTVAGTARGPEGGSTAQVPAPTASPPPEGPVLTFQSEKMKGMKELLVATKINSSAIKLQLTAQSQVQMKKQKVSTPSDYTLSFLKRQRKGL
# Procedure, shortened: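 Compound was preincubated 30 min at room temperature with biotinylated menin (5 nM) and MLL-AF9-FLAG lysate from HEK293 cells, pH 7.4 buffer with 5% DMSO and DTT. Bead-based Alpha signal after 60 min with streptavidin donor and anti-FLAG acceptor beads; four-parameter logistic fit gave IC50.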
# [2] = tested on: human acute monocytic leukemia cell line MV-4-11; test: Assay 2: cell proliferation assay (ATP quantitation, CellTiter-Glo), MV-4-11; assay type: cell-based; details: MV-4-11 cells
# Procedure, shortened: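 Read-out is CellTiter-Glo luminescence quantifying ATP. Compound exposure lasted 72 h at 37° C., 5% CO2, with 1.67×10^4 MV-4-11 cells per well in 10% FBS medium, alongside HL-60 toxicity-control cells.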
Structure (SMILES),IC50 [1] [nM],"EC50 ([2]; Homo sapiens, MV4-11, 72 h) [nM]",EC50 ([2]; 72 h) [nM]
"CC(=O)N[C@H]1CC[C@H](CN2CCC3(CCN(c4ncncc4Oc4ccc(F)cc4-c4ccc(C#N)cc4C4CC4)C3)C2)CC1 (stereo partly drawn) [Example 188, N-((1r,4r)-4-((7-(5-((4′-cyano-2′-cyclopropyl-5-fluoro-[1,1′-biphenyl]-2-yl)oxy)pyrimidin-4-yl)-2,7-diazaspiro[4.4]nonan-2-yl)methyl)cyclohexyl) acetamide]",< 100,100 to 1000,
"N#Cc1ccc(-c2cc(F)ccc2Oc2cncnc2N2CCC3(CCN(Cc4ccc5c(c4)NC(=O)C5)C3)C2)c(C2CC2)c1 (stereo not drawn) [Example 196, 2-cyclopropyl-5′-fluoro-2′-((4-(7-((2-oxoindolin-6-yl)methyl)-2,7-diazaspiro[4.4]nonan-2-yl)pyrimidin-5-yl)oxy)-[1,1′-biphenyl]-4-carbonitrile]",< 100,< 100,
"CC(C)N(C(=O)c1cc(F)ccc1Oc1cncnc1N1CC2(CCN(C[C@H]3CC[C@H](NS(C)(=O)=O)CC3)CC2)C1)C(C)C [Example 6A, 5-fluoro-N,N-diisopropyl-2-((4-(7-(((1r,4r)-4-(methylsulfonamido)cyclohexyl)methyl)-2,7-diazaspiro[3.5]nonan-2-yl)pyrimidin-5-yl)oxy)benzamide]",< 100,< 100,
"CC(C)c1ccccc1-c1cc(F)ccc1Oc1cncnc1N1CC2(CN(CC3CCOCC3)C2)C1 [Example 237A, 2-(5-((5-fluoro-2′-isopropyl-[1,1′-biphenyl]-2-yl)oxy)pyrimidin-4-yl)-6-((tetrahydro-2H-pyran-4-yl)methyl)-2,6-diazaspiro[3.3] heptane]",< 100,< 100,
"CC(C)N(C(=O)c1cc(F)ccc1Oc1cncnc1N1CC2(CN(CC[C@H]3CC[C@H](NC(=O)OC(C)(C)C)CC3)C2)C1)C(C)C [Example 115, tert-butyl ((1r,4r)-4-(2-(6-(5-(2-(diisopropylcarbamoyl)-4-fluorophenoxy)pyrimidin-4-yl)-2,6-diazaspiro[3.3]heptan-2-yl)ethyl)cyclohexyl) carbamate]",< 100,< 100,
"CCN(C(=O)C(C)C)c1cc(F)ccc1Oc1cncnc1N1CC2(CCN(CC3CCOCC3)CC2)C1 [Example 110, N-ethyl-N-(5-fluoro-2-((4-(7-((tetrahydro-2H-pyran-4-yl)methyl)-2,7-diazaspiro[3.5]nonan-2-yl)pyrimidin-5-yl)oxy)phenyl)iso-butyramide]",< 100,100 to 1000,
"CC(C)c1ncncc1-c1cc(F)ccc1Oc1cncnc1N1CC2(CC(NC(C)c3ccc(C#N)cc3)C2)C1 (stereo not drawn) [Example 141, 4-(1-((2-(5-(4-fluoro-2-(4-isopropylpyrimidin-5-yl)phenoxy)pyrimidin-4-yl)-2-azaspiro[3.3]heptan-6-yl)amino)ethyl)benzo-nitrile]",< 100,100 to 1000,
"CC(C)c1ncncc1-c1cc(F)ccc1Oc1cncnc1N1CC2(CC(NC3CCC(C)(C#N)CC3)C2)C1 (single isomer, unassigned) [Example 148B, 4-((2-(5-(4-fluoro-2-(4-isopropylpyrimidin-5-yl)phenoxy)pyrimidin-4-yl)-2-azaspiro[3.3]heptan-6-yl)amino)-1-methylcyclohexane carbonitrile]",< 100,,100 to 1000
"CC(C)c1ncncc1-c1cc(F)ccc1Oc1cncnc1N1CCC2(CCN(Cc3ccc4c(c3)[nH]c(=O)n4C)C2)C1 (stereo not drawn) [Example 150, 5-((7-(5-(4-fluoro-2-(4-isopropylpyrimidin-5-yl)phenoxy)pyrimidin-4-yl)-2,7-diazaspiro[4.4]nonan-2-yl)methyl)-1-methyl-1,3-dihydro-2H-benzo[d]imidazol-2-one]",< 100,< 100,
"COC(=O)Nc1cccc(CN2CCC3(CCN(c4ncncc4Oc4ccc(F)cc4-c4ccc(C#N)cc4C4CC4)C3)C2)c1 (stereo not drawn) [Example 170, methyl (3-((7-(5-((4′-cyano-2′-cyclopropyl-5-fluoro-[1,1′-biphenyl]-2-yl)oxy)pyrimidin-4-yl)-2,7-diazaspiro[4.4]nonan-2-yl)methyl)phenyl) carbamate]",< 100,100 to 1000,
"CC(C)(C)OC(=O)N[C@H]1CC[C@H](CCN2CC3(C2)CN(c2ncncc2Oc2ccc(F)cc2-c2cccnc2C2CC2)C3)CC1 [Example 88, tert-butyl ((1r,4r)-4-(2-(6-(5-(2-(2-cyclopropylpyridin-3-yl)-4-fluorophenoxy)pyrimidin-4-yl)-2,6-diazaspiro[3.3]heptan-2-yl)ethyl)cyclohexyl) carbamate]",< 100,< 100,

# Results, then the compound that gave them:
IC50 [1] [nM],"EC50 ([2]; Homo sapiens, MV4-11, 72 h) [nM]",EC50 ([2]; 72 h) [nM],Structure (SMILES)
< 100,< 100,,"COC(=O)N(c1cc(F)ccc1Oc1cncnc1N1CCC2(CCN(Cc3ccc4[nH]c(=O)[nH]c4c3)C2)C1)C(C)C (stereo not drawn) [Example 144, methyl (5-fluoro-2-((4-(7-((2-oxo-2,3-dihydro-1H-benzo[d]imidazol-5-yl)methyl)-2,7-diazaspiro[4.4]nonan-2-yl)pyrimidin-5-yl)oxy)phenyl)(iso-propyl)carbamate]"
< 100,100 to 1000,,"CCOC(=O)N(C)c1cc(F)ccc1Oc1cncnc1N1CCC2(CCN(Cc3ccc4[nH]c(=O)[nH]c4c3)C2)C1 (stereo not drawn) [Example 164, ethyl (5-fluoro-2-((4-(7-((2-oxo-2,3-dihydro-1H-benzo[d]imidazol-5-yl)methyl)-2,7-diazaspiro[4.4]nonan-2-yl)pyrimidin-5-yl)oxy)phenyl) (methyl)carbamate]"
< 100,< 100,,"O=c1[nH]c2ccc(CN3CCC4(CCN(c5ncncc5Oc5ccc(F)cc5-c5cccnc5C5CC5)C4)C3)cc2[nH]1 (stereo not drawn) [Example 180, 5-((7-(5-(2-(2-cyclopropylpyridin-3-yl)-4-fluorophenoxy)pyrimidin-4-yl)-2,7-diazaspiro[4.4]nonan-2-yl)methyl)-1,3-dihydro-2H-benzo[d]imidazol-2-one]"
< 100,100 to 1000,,"CC(C)CCc1cc(F)ccc1Oc1cncnc1N1CCC2(CCN(Cc3ccc4[nH]c(=O)[nH]c4c3)C2)C1 (stereo not drawn) [Example 235, 5-((7-(5-(4-fluoro-2-isopentylphenoxy)pyrimidin-4-yl)-2,7-diazaspiro[4.4]nonan-2-yl)methyl)-1,3-dihydro-2H-benzo[d]imidazol-2-one]"
< 100,100 to 1000,,"CC1CCCN1C(=O)c1cc(F)ccc1Oc1cncnc1N1CCC2(CCN(Cc3ccc4[nH]c(=O)[nH]c4c3)C2)C1 (stereo not drawn) [Example 211, 5-((7-(5-(4-fluoro-2-(2-methylpyrrolidine-1-carbonyl)phenoxy)pyrimidin-4-yl)-2,7-diazaspiro[4.4]nonan-2-yl)methyl)-1,3-dihydro-2H-benzo [d]imidazol-2-one]"
< 100,100 to 1000,,"CCC(C)(OC)c1cc(F)ccc1Oc1cncnc1N1CCC2(CCN(Cc3ccc4[nH]c(=O)[nH]c4c3)C2)C1 (stereo not drawn) [Example 33, 5-((7-(5-(4-fluoro-2-(2-methoxybutan-2-yl)phenoxy)pyrimidin-4-yl)-2,7-diazaspiro[4.4]nonan-2-yl)methyl)-1,3-dihydro-2H-benzo[d]imidazol-2-one]"
< 100,< 100,,"CC(C)N(CCO)C(=O)c1cc(F)ccc1Oc1cncnc1N1CCC2(CCN(Cc3ccc4[nH]c(=O)[nH]c4c3)C2)C1 (stereo not drawn) [Example 5, 5-fluoro-N-(2-hydroxyethyl)-N-isopropyl-2-((4-(7-((2-oxo-2,3-dihydro-1H-benzo[d]imidazol-5-yl)methyl)-2,7-diazaspiro[4.4]nonan-2-yl)pyrimidin-5-yl)oxy)benzamide]"
< 100,< 100,,"CCN(C(=O)C(C)C)c1cc(F)ccc1Oc1cncnc1N1CCC2(CCN(Cc3ccc4[nH]c(=O)[nH]c4c3)C2)C1 (stereo not drawn) [Example 186, N-ethyl-N-(5-fluoro-2-((4-(7-((2-oxo-2,3-dihydro-1H-benzo[d]imidazol-5-yl)methyl)-2,7-diazaspiro[4.4]nonan-2-yl)pyrimidin-5-yl)oxy)phenyl) isobutyramide]"
< 100,100 to 1000,,"CC(C)N(C)C(=O)c1cc(F)ccc1Oc1cncnc1N1CCC2(CCN(Cc3ccc4cn[nH]c4c3)C2)C1 (stereo not drawn) [Example 145, 2-((4-(7-((1H-indazol-6-yl)methyl)-2,7-diazaspiro[4.4]nonan-2-yl)pyrimidin-5-yl)oxy)-5-fluoro-N-isopropyl-N-methylbenzamide]"
< 100,< 100,,"CC(C)N(C)C(=O)c1cc(F)ccc1Oc1cncnc1N1CCC2(CCN(Cc3ccc4c(c3)NC(=O)C4(C)C#N)C2)C1 (stereo not drawn) [Example 125, 2-((4-(7-((3-cyano-3-methyl-2-oxoindolin-6-yl)methyl)-2,7-diazaspiro [4.4]nonan-2-yl)pyrimidin-5-yl)oxy)-5-fluoro-N-isopropyl-N-methylbenzamide]"
